Values joined by “and” are separate entries in the source; they are usually repeats but may differ in a detail not shown here. Equal entries are not always repeated. Where two headings read alike, the source gives them in different places.
Experiments:
[1] = system: Fusarium graminearum; assay: microbe, parasite or virus in culture; format: cell-based; conditions: for Average Fungal Colony Diameter F.g / Growth Inhibition Rate F.g: sensitive strains
[2] = system: Fusarium asiaticum; assay: microbe, parasite or virus in culture; format: cell-based; conditions: for Average Fungal Colony Diameter F.a / Growth Inhibition Rate F.a: sensitive strains
[3] = system: Fusarium graminearum and Fusarium asiaticum; assay: organism not typed; format: cell-based
[4] = system: carbendazim-resistant Fusarium asiaticum; assay: microbe, parasite or virus in culture; format: cell-based; conditions: for DON Biosynthesis Inhibition Rate / Toxin Production Capability: Jinggangmycin + Tebuconazole 0 + 0.1 μg/ml
[5] = system: powdery mildew; format: in vivo, wheat; conditions: dosage g ai./mu: c1 Jinggangmycin, c2 Tebuconazole of the line
[6] = system: wheat scab; format: in vivo
[7] = system: leaf blight; format: in vivo, wheat
[8] = system: powdery mildew; format: in vivo, wheat
[9] = system: rust; format: in vivo, wheat
[10] = system: wheat scab; format: in vivo; remark: listed apart in the source
[11] = system: leaf blight; format: in vivo, wheat; remark: listed apart in the source
[12] = system: powdery mildew; format: in vivo, wheat; remark: listed apart in the source
[13] = system: rust; format: in vivo, wheat; remark: listed apart in the source
[14] = format: in vivo, wheat
[15] = system: wheat scab; format: in vivo; conditions: Preparation 50 g/mu; Tebuconazole 10 g ai. agent/mu
[16] = system: leaf blight; format: in vivo, wheat; remark: listed apart in the source
[17] = system: powdery mildew; format: in vivo, wheat; remark: listed apart in the source
[18] = system: rust; format: in vivo, wheat; remark: listed apart in the source
[19] = format: in vivo, wheat; remark: listed apart in the source
[20] = system: wheat scab; format: in vivo; conditions: Preparation 100 g/mu; Jinggangmycin 0, Tebuconazole 20 g ai. agent/mu
[21] = system: leaf blight; format: in vivo, wheat; conditions: Preparation 100 g/mu; Jinggangmycin 0, Tebuconazole 20 g ai. agent/mu
[22] = system: powdery mildew; format: in vivo, wheat; conditions: Preparation 100 g/mu; Jinggangmycin 0, Tebuconazole 20 g ai. agent/mu
[23] = system: rust; format: in vivo, wheat; conditions: Preparation 100 g/mu; Jinggangmycin 0, Tebuconazole 20 g ai. agent/mu
[24] = system: wheat scab; format: in vivo; conditions: Preparation 100 (mL/mu); Jinggangmycin 0, Tebuconazole 20 g ai. agent/mu
[25] = system: leaf blight; format: in vivo, wheat; conditions: Preparation 100 (mL/mu); Jinggangmycin 0, Tebuconazole 20 g ai. agent/mu
[26] = system: powdery mildew; format: in vivo, wheat; conditions: Preparation 100 (mL/mu); Jinggangmycin 0, Tebuconazole 20 g ai. agent/mu
[27] = system: rust; format: in vivo, wheat; conditions: Preparation 100 (mL/mu); Jinggangmycin 0, Tebuconazole 20 g ai. agent/mu
[28] = system: wheat scab; format: in vivo; remark: listed apart in the source
[29] = system: powdery mildew; format: in vivo, wheat; remark: listed apart in the source
[30] = Tebuconazole 2.0 g ai. agent/mu
[31] = Tebuconazole 4.0 g ai. agent/mu
[32] = Tebuconazole 6.0 g ai. agent/mu
[33] = Tebuconazole 7.5 g ai. agent/mu
[34] = Tebuconazole 8.8 g ai. agent/mu
[35] = Tebuconazole 9.5 g ai. agent/mu
[36] = Tebuconazole 12.0 g ai. agent/mu
[37] = Tebuconazole 15.0 g ai. agent/mu
[38] = Tebuconazole 17.5 g ai. agent/mu
[39] = Tebuconazole 19.0 g ai. agent/mu
[40] = Preparation 15 g/mu, Tebuconazole 3 g ai. agent/mu
[41] = Preparation 37.5 g/mu, Tebuconazole 7.5 g ai. agent/mu
[42] = Preparation 50 g/mu, Tebuconazole 10 g ai. agent/mu
[43] = Preparation 22.5 g/mu, Tebuconazole 4.5 g ai. agent/mu
[44] = Preparation 30 g/mu, Tebuconazole 6 g ai. agent/mu

Tebuconazole
Median Effective Concentration (EC50) for Growth Inhibition ([1]; F.g sensitive strains): 0.096 µg/mL | Average Fungal Colony Diameter F.g ([1]; Tebuconazole 0.02 μg/mL): 42 mm | Growth Inhibition Rate F.g ([1]; Tebuconazole 0.02 μg/mL): 34.2% | Average Fungal Colony Diameter F.g ([1]; Tebuconazole 0.078 μg/mL): 32 mm | Growth Inhibition Rate F.g ([1]; Tebuconazole 0.078 μg/mL): 47.5% | Average Fungal Colony Diameter F.g ([1]; Tebuconazole 0.3125 μg/mL): 21 mm | Growth Inhibition Rate F.g ([1]; Tebuconazole 0.3125 μg/mL): 72.1% | Average Fungal Colony Diameter F.g ([1]; Tebuconazole 5.0 μg/mL): 9 mm | Growth Inhibition Rate F.g ([1]; Tebuconazole 5.0 μg/mL): 88.0% | Median Effective Concentration (EC50) for Growth Inhibition ([2]; F.a carbendazim-resistant strains): 0.116 µg/mL | Median Effective Concentration (EC50) for Growth Inhibition ([2]; F.a phenamacril-resistant strains): 0.111 µg/mL | Median Effective Concentration (EC50) for Growth Inhibition ([2]; F.a sensitive strains): 0.102 µg/mL | Average Fungal Colony Diameter F.a ([2]; Tebuconazole 0.02 μg/mL): 43 mm | Growth Inhibition Rate F.a ([2]; Tebuconazole 0.02 μg/mL): 32.9% | Average Fungal Colony Diameter F.a ([2]; Tebuconazole 0.078 μg/mL): 34 mm | Growth Inhibition Rate F.a ([2]; Tebuconazole 0.078 μg/mL): 48.8% | Average Fungal Colony Diameter F.a ([2]; Tebuconazole 0.3125 μg/mL): 22 mm | Growth Inhibition Rate F.a ([2]; Tebuconazole 0.3125 μg/mL): 70.8% | Average Fungal Colony Diameter F.a ([2]; Tebuconazole 5.0 μg/mL): 9 mm | Growth Inhibition Rate F.a ([2]; Tebuconazole 5.0 μg/mL): 88.0% | activity of tebuconazole relative to carbendazim (by EC50) ([3]; sensitive strains): about 4.5 times | activity of tebuconazole relative to phenamacril (by EC50) ([3]; sensitive strains): about 1.5 times | inhibition rate on the hyphal growth of the head blight fungi ([3]; tebuconazole 0.1 μg/ml alone): about 50% | DON Biosynthesis Inhibition Rate ([4]; 7 days): 4.2% | Toxin Production Capability ([4]; 7 days): 87.42 μgDON/g by dry weight of hyphae | DON Biosynthesis Inhibition Rate ([4]; 14 days): 0.6% | Toxin Production Capability ([4]; 14 days): 52.50 μgDON/g by dry weight of hyphae | inhibitory effect on toxin biosynthesis capability versus blank control ([4]; tebuconazole 0.1 μg/ml, seven and fourteen days): does not have significant inhibitory effects | Disease Index Prevention Effect % Powdery Mildew [5]: 72.61% and 76.19% and 66.32% and 39.46% | Disease Index Prevention Effect % Head Blight [6, 30]: 12.9% | Disease Index Prevention Effect % Head Blight [6, 31]: 25.6% | Disease Index Prevention Effect % Head Blight [6, 32]: 42.5% | Disease Index Prevention Effect % Head Blight [6, 33]: 56.7% | Disease Index Prevention Effect % Head Blight [6, 34]: 61.5% | Disease Index Prevention Effect % Head Blight [6, 35]: 65.4% | Disease Index Prevention Effect % Head Blight [6, 36]: 68.4% | Disease Index Prevention Effect % Head Blight [6, 37]: 71.8% | Disease Index Prevention Effect % Head Blight [6, 38]: 73.9% | Disease Index Prevention Effect % Head Blight [6, 39]: 74.2% | Disease Index Prevention Effect % Leaf Blight [7, 30]: 14.5% | Disease Index Prevention Effect % Leaf Blight [7, 31]: 19.2% | Disease Index Prevention Effect % Leaf Blight [7, 32]: 29.5% | Disease Index Prevention Effect % Leaf Blight [7, 33]: 71.2% | Disease Index Prevention Effect % Leaf Blight [7, 34]: 73.1% | Disease Index Prevention Effect % Leaf Blight [7, 35]: 74.2% | Disease Index Prevention Effect % Leaf Blight [7, 36]: 76.5% | Disease Index Prevention Effect % Leaf Blight [7, 37]: 78.9% | Disease Index Prevention Effect % Leaf Blight [7, 38]: 80.3% | Disease Index Prevention Effect % Leaf Blight [7, 39]: 81.2% | Disease Index Prevention Effect % Powdery Mildew [8, 30]: 15.4% | Disease Index Prevention Effect % Powdery Mildew [8, 31]: 28.5% | Disease Index Prevention Effect % Powdery Mildew [8, 32]: 36.4% | Disease Index Prevention Effect % Powdery Mildew [8, 33]: 58.2% | Disease Index Prevention Effect % Powdery Mildew [8, 34]: 60.5% | Disease Index Prevention Effect % Powdery Mildew [8, 35]: 65.2% | Disease Index Prevention Effect % Powdery Mildew [8, 36]: 76.5% | Disease Index Prevention Effect % Powdery Mildew [8, 37]: 74.5% | Disease Index Prevention Effect % Powdery Mildew [8, 38]: 76.4% | Disease Index Prevention Effect % Powdery Mildew [8, 39]: 81.2% | Disease Index Prevention Effect % Rust [9, 30]: 18.0% | Disease Index Prevention Effect % Rust [9, 31]: 32.1% | Disease Index Prevention Effect % Rust [9, 32]: 45.2% | Disease Index Prevention Effect % Rust [9, 33]: 71.5% | Disease Index Prevention Effect % Rust [9, 34]: 78.4% | Disease Index Prevention Effect % Rust [9, 35]: 80.5% | Disease Index Prevention Effect % Rust [9, 36]: 81.8% | Disease Index Prevention Effect % Rust [9, 37]: 85.6% | Disease Index Prevention Effect % Rust [9, 38]: 89.4% | Disease Index Prevention Effect % Rust [9, 39]: 92.8% | Disease Index Prevention Effect % Head Blight ([10]; Tebuconazole 6 g ai. agent/mu): 53.4% | Disease Index Prevention Effect % Head Blight ([10]; Tebuconazole 9 g ai. agent/mu): 65.8% | Disease Index Prevention Effect % Head Blight ([10]; Tebuconazole 15 g ai. agent/mu): 70.4% | Disease Index Prevention Effect % Head Blight ([10]; Tebuconazole 21 g ai. agent/mu): 76.8% | Disease Index Prevention Effect % Leaf Blight ([11]; Tebuconazole 6 g ai. agent/mu): 64.5% | Disease Index Prevention Effect % Leaf Blight ([11]; Tebuconazole 9 g ai. agent/mu): 70.1% | Disease Index Prevention Effect % Leaf Blight ([11]; Tebuconazole 15 g ai. agent/mu): 72.4% | Disease Index Prevention Effect % Leaf Blight ([11]; Tebuconazole 21 g ai. agent/mu): 73.5% | Disease Index Prevention Effect % Powdery Mildew ([12]; Tebuconazole 6 g ai. agent/mu): 62.4% | Disease Index Prevention Effect % Powdery Mildew ([12]; Tebuconazole 9 g ai. agent/mu): 70.8% | Disease Index Prevention Effect % Powdery Mildew ([12]; Tebuconazole 15 g ai. agent/mu): 76.4% | Disease Index Prevention Effect % Powdery Mildew ([12]; Tebuconazole 21 g ai. agent/mu): 81.6% | Disease Index Prevention Effect % Rust ([13]; Tebuconazole 6 g ai. agent/mu): 61.5% | Disease Index Prevention Effect % Rust ([13]; Tebuconazole 9 g ai. agent/mu): 72.6% | Disease Index Prevention Effect % Rust ([13]; Tebuconazole 15 g ai. agent/mu): 78.3% | Disease Index Prevention Effect % Rust ([13]; Tebuconazole 21 g ai. agent/mu): 86.1% | Thousand Kernel Weight ([14]; Tebuconazole 6 g ai. agent/mu): 40.5 g | Thousand Kernel Weight ([14]; Tebuconazole 9 g ai. agent/mu): 41.5 g | Thousand Kernel Weight ([14]; Tebuconazole 15 g ai. agent/mu): 42 g | Thousand Kernel Weight ([14]; Tebuconazole 21 g ai. agent/mu): 42.7 g | Disease Index Prevention Effect % Head Blight [15]: 72.4% | Disease Index Prevention Effect % Leaf Blight [16, 40]: 65.4% | Disease Index Prevention Effect % Leaf Blight [16, 41]: 68.5% | Disease Index Prevention Effect % Leaf Blight [16, 42]: 64.5% | Disease Index Prevention Effect % Powdery Mildew [17, 40]: 68.1% | Disease Index Prevention Effect % Powdery Mildew [17, 41]: 73.5% | Disease Index Prevention Effect % Powdery Mildew [17, 42]: 82.4% | Disease Index Prevention Effect % Rust [18, 40]: 64.5% | Disease Index Prevention Effect % Rust [18, 41]: 75.6% | Disease Index Prevention Effect % Rust [18, 42]: 82.4% | Thousand Kernel Weight [19, 40]: 40 g | Thousand Kernel Weight [19, 41]: 41.5 g | Thousand Kernel Weight [19, 42]: 40.8 g | Disease Index Prevention Effect % Head Blight [20]: 80.1% | Disease Index Prevention Effect % Leaf Blight [21]: 84.2% | Disease Index Prevention Effect % Powdery Mildew [22]: 96.2% | Disease Index Prevention Effect % Rust [23]: 98.5% | Disease Index Prevention Effect % Head Blight [24]: 84.6% | Disease Index Prevention Effect % Leaf Blight [25]: 83.6% | Disease Index Prevention Effect % Powdery Mildew [26]: 88.2% | Disease Index Prevention Effect % Rust [27]: 82.4% | Disease Index Prevention Effect % Head Blight [28, 43]: 48.2% | Disease Index Prevention Effect % Head Blight [28, 44]: 53.9% | Disease Index Prevention Effect % Powdery Mildew [29, 40]: 48.7% | Disease Index Prevention Effect % Powdery Mildew [29, 43]: 60.4% | Disease Index Prevention Effect % Powdery Mildew [29, 44]: 64.9% | Disease Index Prevention Effect % Powdery Mildew [29, 41]: 72.4%

From patent US10588316B2 (priority 2015, dated 2020)
